Reference: PMC4114755, “Identification of Polyketide Inhibitors Targeting 3-Dehydroquinate Dehydratase in the Shikimate Pathway of Enterococcus faecalis” (PLoS ONE, 2014)

Legend:
[1] = biological target: T1, efDHQase (3-dehydroquinate dehydratase from Enterococcus faecalis; also DEF) (Enterococcus faecalis, UniProt P36923); assay: efSHD-coupled NADPH oxidation assay, […] nm; type: biochemical
T1 construct: gene aroD; full-length aroD in modified pET-15b, N-terminal 10xHis tag removed with thrombin; expressed in E. coli aroD- pTara; homodimer; catalytic Lys170
T1 sequence (P36923 1-253): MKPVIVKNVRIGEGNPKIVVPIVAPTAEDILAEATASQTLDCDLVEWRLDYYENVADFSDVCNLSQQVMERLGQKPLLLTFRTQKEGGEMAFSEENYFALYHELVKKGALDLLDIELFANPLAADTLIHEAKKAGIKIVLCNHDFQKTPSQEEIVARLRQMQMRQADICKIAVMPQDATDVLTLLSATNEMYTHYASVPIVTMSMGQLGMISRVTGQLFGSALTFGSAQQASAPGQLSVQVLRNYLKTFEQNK

purified protein = substrate: O=C1C[C@@](O)(C(=O)O)C[C@@H](O)[C@@H]1O; assay: purified protein; type: biochemical, Enterococcus faecalis; conditions: 0.25 mM NADPH, 50 mM HEPES pH 7.5, 25°C, 10 nM efSHD as coupling enzyme

Row | Molecule | Ki [1] | Km (purified protein) | kcat (purified protein)
1 | C[C@@H]1O[C@@H](OC[C@H]2O[C@@H](Oc3c(-c4ccc(O)c(O)c4)oc4cc(O)cc(O)c4c3=O)[C@H](O)[C@@H](O)[C@@H]2O)[C@H](O)[C@H](O)[C@H]1O [Rutin] | 210 ± 28 µM | – | –
2 | O=c1ccc2ccc(O)cc2o1 [7-Hydroxycoumarin] | 42 ± 19 µM | – | –
3 | O=c1cc(-c2ccc(O)c(O)c2)oc2cc(O[C@@H]3O[C@H](CO)[C@@H](O)[C@H](O)[C@H]3O)cc(O)c12 [Luteolin-7-glucoside] | 69 ± 16 µM | – | –
4 | O=c1cc(-c2ccc(O)c(O)c2)oc2cc(O)c([C@@H]3O[C@H](CO)[C@@H](O)[C@H](O)[C@H]3O)c(O)c12 [Homoorientin] | 140 ± 11 µM | – | –
5 | O=c1ccc2cc(O[C@@H]3O[C@H](CO)[C@@H](O)[C@H](O)[C@H]3O)c(O)cc2o1 [Aesculine] | 180 ± 38 µM | – | –
6 | O=C(/C=C/c1ccc(O)c(O)c1)c1ccc(O[C@@H]2O[C@H](CO)[C@@H](O)[C@H](O)[C@H]2O)c(O)c1O [Marein] | 340 ± 79 µM | – | –
7 | O=c1c(O)c(-c2ccc(O)c(O)c2)oc2c(O[C@@H]3O[C@H](CO)[C@@H](O)[C@H](O)[C@H]3O)c(O)cc(O)c12 [Gossypin] | 79 ± 14 µM | – | –
8 | C[C@@H]1O[C@@H](O[C@H]2[C@H](Oc3cc(O)c4c(=O)cc(-c5ccc(O)cc5)oc4c3)O[C@H](CO)[C@@H](O)[C@@H]2O)[C@H](O)[C@H](O)[C@H]1O [Rhoifolin] | 19 ± 9 µM | – | –
9 | O=c1cc(-c2ccc(O)c(O[C@@H]3O[C@H](CO)[C@@H](O)[C@H](O)[C@H]3O)c2)oc2cc(O[C@@H]3O[C@H](CO)[C@@H](O)[C@H](O)[C@H]3O)cc(O)c12 [Luteolin-3′-7-diglucoside] | 89 ± 3 µM | – | –
10 | efDHQase (3-dehydroquinate dehydratase from Enterococcus faecalis; also DEF) (Enterococcus faecalis V583) (protein, full-length aroD in modified pET-15b, N-terminal 10xHis tag removed with thrombin; expressed in E. coli aroD- pTara; homodimer; catalytic Lys170) MKPVIVKNVRIGEGNPKIVVPIVAPTAEDILAEATASQTLDCDLVEWRLDYYENVADFSDVCNLSQQVMERLGQKPLLLTFRTQKEGGEMAFSEENYFALYHELVKKGALDLLDIELFANPLAADTLIHEAKKAGIKIVLCNHDFQKTPSQEEIVARLRQMQMRQADICKIAVMPQDATDVLTLLSATNEMYTHYASVPIVTMSMGQLGMISRVTGQLFGSALTFGSAQQASAPGQLSVQVLRNYLKTFEQNK | – | 65 µM | 110 s⁻¹
